Laboratory results: patent US20150105252A1, “SUBSTITUTED PYRAZOLES AS HERBICIDES” (E I DU PONT DE NEMOURS AND COMPANY, priority 2013, published 2015)

Key:
[1] = system: foxtail, giant; assay: Test A postemergence; type: in vivo, Setaria faberii
How it was run: (§1)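 Ratings express plant response from 0 (no effect) to 100 (complete control), judged visually against untreated controls after approximately 10 days in the greenhouse. Preemergence applications were made as directed soil sprays onto seeded loam–sand mix, and postemergence applications onto 2–10 cm plants at one- to two-leaf stage.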

[2] = system: johnsongrass; assay: Test C preemergence; type: in vivo, Sorghum halepense; settings: for Plant response rating (scale of 0 to 100), Johnsongrass: Preemergence, 250 g ai/ha; for Johnsongrass plant response rating / Plant response rating, Johnsongrass: preemergence, 13 to 15 days; for Johnsongrass plant response rating: scale 0 to 100 (0 no effect, 100 complete control); for Plant response rating, Johnsongrass: 125 g ai/ha, scale 0 to 100, 0 = no effect, 100 = complete control
How it was run: (§2)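 Herbicidal effect is expressed as percent visual control (0–100) judged against untreated plants 13 to 15 days after treatment in the greenhouse. Preemergence pots contained seeds in a soil–sand blend; postemergence plants, 2–18 cm tall, grew in peat-based planting medium.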

[3] = system: foxtail, giant; assay: Test A preemergence; type: in vivo, Setaria faberii; settings: preemergence
How it was run: as §1

[4] = system: crabgrass, large; assay: Test C preemergence; type: in vivo, Digitaria sanguinalis; settings: for Plant response rating (scale of 0 to 100), Crabgrass, Large: Preemergence, 250 g ai/ha; for Crabgrass, Large plant response rating / Plant response rating, Crabgrass, Large: preemergence, 13 to 15 days; for Crabgrass, Large plant response rating: scale 0 to 100 (0 no effect, 100 complete control); for Plant response rating, Crabgrass, Large: 125 g ai/ha, scale 0 to 100, 0 = no effect, 100 = complete control
How it was run: as §2

[5] = system: soybean; assay: Test C preemergence; type: in vivo, Glycine max; settings: for Plant response rating (scale of 0 to 100), Soybean: Preemergence, 250 g ai/ha; for Soybean plant response rating / Plant response rating, Soybean: preemergence, 13 to 15 days; for Soybean plant response rating: scale 0 to 100 (0 no effect, 100 complete control); for Plant response rating, Soybean: 125 g ai/ha, scale 0 to 100, 0 = no effect, 100 = complete control
How it was run: as §2

[6] = system: corn; assay: Test A preemergence; type: in vivo, Zea mays; settings: preemergence
How it was run: as §1

[7] = system: corn; assay: Test C preemergence; type: in vivo, Zea mays; settings: for Plant response rating (scale of 0 to 100), Corn: Preemergence, 250 g ai/ha; for Corn plant response rating / Plant response rating, Corn: preemergence, 13 to 15 days; for Corn plant response rating: scale 0 to 100 (0 no effect, 100 complete control); for Plant response rating, Corn: 125 g ai/ha, scale 0 to 100, 0 = no effect, 100 = complete control
How it was run: as §2

[8] = system: waterhemp; assay: Test C preemergence; type: in vivo, Amaranthus rudis; settings: for Plant response rating (scale of 0 to 100), Waterhemp: Preemergence, 250 g ai/ha; for Waterhemp plant response rating / Plant response rating, Waterhemp: preemergence, 13 to 15 days; for Waterhemp plant response rating: scale 0 to 100 (0 no effect, 100 complete control); for Plant response rating, Waterhemp: 125 g ai/ha, scale 0 to 100, 0 = no effect, 100 = complete control
How it was run: as §2

[9] = system: barnyardgrass; assay: Test A preemergence; type: in vivo, Echinochloa crus-galli; settings: preemergence
How it was run: as §1

[10] = system: pigweed; assay: Test C preemergence; type: in vivo, Amaranthus retroflexus; settings: for Plant response rating (scale of 0 to 100), Pigweed: Preemergence, 250 g ai/ha; for Pigweed plant response rating / Plant response rating, Pigweed: preemergence, 13 to 15 days; for Pigweed plant response rating: scale 0 to 100 (0 no effect, 100 complete control); for Plant response rating, Pigweed: 125 g ai/ha, scale 0 to 100, 0 = no effect, 100 = complete control
How it was run: as §2

[11] = system: barnyardgrass; assay: Test C preemergence; type: in vivo, Echinochloa crus-galli; settings: for Plant response rating (scale of 0 to 100), Barnyardgrass: Preemergence, 250 g ai/ha; for Barnyardgrass plant response rating / Plant response rating, Barnyardgrass: preemergence, 13 to 15 days; for Barnyardgrass plant response rating: scale 0 to 100 (0 no effect, 100 complete control); for Plant response rating, Barnyardgrass: 125 g ai/ha, scale 0 to 100, 0 = no effect, 100 = complete control
How it was run: as §2

[12] = system: velvetleaf; assay: Test C preemergence; type: in vivo, Abutilon theophrasti; settings: for Plant response rating (scale of 0 to 100), Velvetleaf: Preemergence, 250 g ai/ha; for Velvetleaf plant response rating / Plant response rating, Velvetleaf: preemergence, 13 to 15 days; for Velvetleaf plant response rating: scale 0 to 100 (0 no effect, 100 complete control); for Plant response rating, Velvetleaf: 125 g ai/ha, scale 0 to 100, 0 = no effect, 100 = complete control
How it was run: as §2

[13] = system: foxtail, giant; assay: Test C preemergence; type: in vivo, Setaria faberii; settings: for Plant response rating (scale of 0 to 100), Foxtail, Giant: Preemergence, 250 g ai/ha; for Foxtail, Giant plant response rating / Plant response rating, Foxtail, Giant: preemergence, 13 to 15 days; for Foxtail, Giant plant response rating: scale 0 to 100 (0 no effect, 100 complete control); for Plant response rating, Foxtail, Giant: 125 g ai/ha, scale 0 to 100, 0 = no effect, 100 = complete control
How it was run: as §2

[14] = system: morningglory; assay: Test A postemergence; type: in vivo, Ipomoea spp.
How it was run: as §1

[15] = system: wheat; assay: Test A postemergence; type: in vivo, Triticum aestivum
How it was run: as §1

[16] = Postemergence, 500 g ai/ha, 0 to 100 scale (0 no effect, 100 complete control)
[17] = postemergence, 125 g ai/ha, about 10 days, visual rating on 0 to 100 scale (0 no effect, 100 complete control)
[18] = 125 g ai/ha, visual injury, 0 to 100 scale, approx. 10 days
[19] = 500 g ai/ha, visual injury after approx. 10 days, 0 to 100 scale (0 no effect, 100 complete control)

CCCc1cc(C(=O)NCC)nn1Cc1cc(C(F)(F)F)nn1C [Compound 129]
80: Foxtail, Giant plant response rating [1, 17]
40: Soybean plant response rating ([5]; 31 g ai/ha, visual rating)
50: Wheat plant response rating [15, 17]
65: Plant response rating (scale of 0 to 100), Corn [7]
55: Soybean plant response rating ([5]; 62 g ai/ha) | Plant response rating, Corn [7] | Velvetleaf plant response rating ([12]; 31 g ai/ha, visual rating)
100: Plant response rating (scale of 0 to 100), Johnsongrass [2] | Foxtail, Giant plant response rating [3, 18] | Foxtail, Giant plant response rating [3, 19] | Plant response rating (scale of 0 to 100), Crabgrass, Large [4] | Crabgrass, Large plant response rating ([4]; 62 g ai/ha) | Plant response rating, Crabgrass, Large [4] | Plant response rating (scale of 0 to 100), Waterhemp [8] | Waterhemp plant response rating ([8]; 31 g ai/ha, visual rating) | Waterhemp plant response rating ([8]; 62 g ai/ha) | Plant response rating, Waterhemp [8] | Barnyardgrass plant response rating [9, 19] | Plant response rating (scale of 0 to 100), Pigweed [10] | Pigweed plant response rating ([10]; 31 g ai/ha, visual rating) | Pigweed plant response rating ([10]; 62 g ai/ha) | Plant response rating, Pigweed [10] | Plant response rating (scale of 0 to 100), Barnyardgrass [11] | Barnyardgrass plant response rating ([11]; 62 g ai/ha) | Plant response rating, Barnyardgrass [11] | Plant response rating (scale of 0 to 100), Velvetleaf [12] | Velvetleaf plant response rating ([12]; 62 g ai/ha) | Plant response rating, Velvetleaf [12] | Plant response rating (scale of 0 to 100), Foxtail, Giant [13] | Foxtail, Giant plant response rating ([13]; 31 g ai/ha, visual rating) | Foxtail, Giant plant response rating ([13]; 62 g ai/ha) | Plant response rating, Foxtail, Giant [13] | Morningglory plant response rating [14, 16]
10: Johnsongrass plant response rating ([2]; 31 g ai/ha, visual rating) | Corn plant response rating [6, 18]
0: Corn plant response rating ([7]; 31 g ai/ha, visual rating)
30: Corn plant response rating [6, 19]
98: Plant response rating, Johnsongrass [2] | Plant response rating (scale of 0 to 100), Soybean [5] | Plant response rating, Soybean [5]
70: Johnsongrass plant response rating ([2]; 62 g ai/ha) | Wheat plant response rating [15, 16]
95: Barnyardgrass plant response rating ([11]; 31 g ai/ha)
15: Corn plant response rating ([7]; 62 g ai/ha)
90: Foxtail, Giant plant response rating [1, 16] | Crabgrass, Large plant response rating ([4]; 31 g ai/ha, visual rating) | Barnyardgrass plant response rating [9, 18] | Morningglory plant response rating [14, 17]

CCNC(=O)c1cc(CC)n(Cc2ccnc(OC(F)F)c2)n1 [Compound 130]
65: Johnsongrass plant response rating ([2]; 62 g ai/ha)
55: Soybean plant response rating ([5]; 62 g ai/ha) | Velvetleaf plant response rating ([12]; 31 g ai/ha, visual rating)
100: Foxtail, Giant plant response rating [3, 18] | Foxtail, Giant plant response rating [3, 19] | Plant response rating (scale of 0 to 100), Crabgrass, Large [4] | Crabgrass, Large plant response rating ([4]; 31 g ai/ha, visual rating) | Crabgrass, Large plant response rating ([4]; 62 g ai/ha) | Plant response rating, Crabgrass, Large [4] | Plant response rating (scale of 0 to 100), Waterhemp [8] | Waterhemp plant response rating ([8]; 31 g ai/ha, visual rating) | Waterhemp plant response rating ([8]; 62 g ai/ha) | Plant response rating, Waterhemp [8] | Barnyardgrass plant response rating [9, 19] | Plant response rating (scale of 0 to 100), Pigweed [10] | Pigweed plant response rating ([10]; 31 g ai/ha, visual rating) | Pigweed plant response rating ([10]; 62 g ai/ha) | Plant response rating, Pigweed [10] | Plant response rating (scale of 0 to 100), Barnyardgrass [11] | Plant response rating, Barnyardgrass [11] | Plant response rating (scale of 0 to 100), Velvetleaf [12] | Velvetleaf plant response rating ([12]; 62 g ai/ha) | Plant response rating (scale of 0 to 100), Foxtail, Giant [13] | Plant response rating, Foxtail, Giant [13] | Morningglory plant response rating [14, 16]
60: Foxtail, Giant plant response rating [1, 17]
30: Corn plant response rating ([7]; 62 g ai/ha)
90: Foxtail, Giant plant response rating [1, 16] | Plant response rating, Soybean [5] | Corn plant response rating [6, 19] | Barnyardgrass plant response rating [9, 18] | Plant response rating, Velvetleaf [12] | Morningglory plant response rating [14, 17] | Wheat plant response rating [15, 16]
10: Soybean plant response rating ([5]; 31 g ai/ha, visual rating)
75: Plant response rating, Johnsongrass [2]
5: Corn plant response rating ([7]; 31 g ai/ha, visual rating)
45: Plant response rating, Corn [7]
70: Foxtail, Giant plant response rating ([13]; 31 g ai/ha, visual rating)
35: Johnsongrass plant response rating ([2]; 31 g ai/ha, visual rating)
98: Plant response rating (scale of 0 to 100), Soybean [5]
0: Corn plant response rating [6, 18]
95: Plant response rating (scale of 0 to 100), Johnsongrass [2] | Foxtail, Giant plant response rating ([13]; 62 g ai/ha)
20: Wheat plant response rating [15, 17]
85: Plant response rating (scale of 0 to 100), Corn [7] | Barnyardgrass plant response rating ([11]; 62 g ai/ha)
50: Barnyardgrass plant response rating ([11]; 31 g ai/ha)
